Reference: US8293705B2, “HCV protease inhibitors and uses thereof” (Avila Therapeutics, Inc., priority 2007, dated 2012)

How the values were obtained:
[1] = tested on: HCV RNA replicon in cell line ET (luc-ubi-neo/ET), human Huh7 hepatoma; test: HCV RNA replicon assay, Example 14 Method A; type: cell-based; conditions: Hepatitis C virus, Huh-7, assay of Example 14, 72 hr; for IC50: read-out: Inhibition, Replicon (IC50); for IC90: read-out: Inhibition, Replicon, IC90 value
Method: The compounds were assayed to evaluate the antiviral activity and cytotoxicity of compounds in vitro using HCV RNA replicons. This assay used the cell line ET (luc-ubi-neo/ET), which is a human Huh7 hepatoma cell line that contains an HCV RNA replicon with a stable luciferase (Luc) reporter and three cell culture-adaptive mutations. […]
The ET cell line was grown in Dulbecco's modified essential media (DMEM), 10% fetal bovine serum (FBS), 1% penicillin-streptomycin (pen-strep), 1% glutamine, 250 μg/mL G418 in a 5% CO2 incubator at 37° C. All cell culture reagents were obtained from Mediatech (Manassas, Va.). Cells were trypsinized (1% trypsin:EDTA) and plated out at 5×10^3 cells/well in white 96-well assay plates (Costar) dedicated to cell number (cytotoxicity) or antiviral activity assessments. Drugs were added at six 3-fold concentrations each and the assay was run in DMEM, 5% FBS, 1% pen-strep, 1% glutamine. Human interferon alpha-2b (PBL Biolabs, New Brunswick, N.J.) was included in each run as a positive control compound. Cells were processed 72 hr post drug addition when the cells are still subconfluent. Antiviral activity was measured by analyzing replicon-derived luciferase activity using the Steady-Glo Luciferase Assay System (Promega, Madison, Wis.) according to manufacturer's instruction. The number of cells in each well was determined by CytoTox-1 reagent (Promega). Compound profile was derived by calculating applicable EC50 (effective concentration inhibiting virus replication by 50%), EC90 (effective concentration inhibiting virus replication by 90%), IC50 (concentration decreasing cell viability by 50%) and SI50 (selective index: […]) values.

HCV NS3/4A wild type = target: T1, HCV NS3/4A wild type (Hepatitis C virus genotype 1b, UniProt Q9WMX2); test: Mass spectrometric analysis of covalent modification (MALDI-TOF); type: binding; conditions: 10× excess of test compound to protein; for Covalent modification of HCV NS3/4A wild type: MALDI-TOF
T1 construct: HCV NS3/4A wild type (wt) was incubated for 1 hr at a 10× fold access of test compound to protein; purchased Bioenza, Calif
Method: Mass spectrometric analysis of HCV wild type or HCV variant C159S in the presence of test compound is performed. 100 pmols of HCV wild type (Bioenza, Calif.) is incubated with test compound for 1 hr and 3 hrs at 10-fold access of test compound to protein. 1 ul aliquots of the samples (total volume of 4.24 ul) are diluted with 10 ul of 0.1% TFA prior to micro C4 ZipTipping directly onto the MALDI target using Sinapinic acid as the desorption matrix (10 mg/mL in 0.1% TFA:Acetonitrile 50:50). Analyses are performed on a Shimadzu Biotech Axima TOF2 (Shimadzu Instruments) matrix-assisted-laser desorption/ionization Time-of-Flight (MALDI-TOF) mass spectrometer. The same procedure is carried out on 100 pmols of HCV C159S mutant of HCV protease for 3 hrs at 10-fold excess of test compound to protein.
As depicted in FIGS. 1 and 2, mass spectrometric analysis of HCV wild type in the presence of test compounds I-1 and I-25 was performed using the following protocol: HCV NS3/4A wild type (wt) was incubated for 1 hr at a 10× fold access of test compound to protein. 2 ul aliquots of the samples were diluted with 10 ul of 0.1% TFA prior to micro C4 ZipTipping directly onto the MALDI target using Sinapinic acid as the desorption matrix (10 mg/ml in 0.1% TFA:Acetonitrile 50:50). For intact protein mass measurement the instrument was set in linear mode using a pulsed extraction setting of 24,500 and apomyoglobin as the standard to calibrate the instrument.

[2] = target: T2, HCV NS3/4A 1b protease D168A (Hepatitis C virus genotype 1b, UniProt Q9WMX2, D1194A); test: HCV protease FRET assay (IC50_APP), Example 16; type: biochemical
T2 construct: 10× stocks of NS3/4A protease enzyme from Bioenza (Mountain View, Calif.); purchased Bioenza (Mountain View, Calif.)
Method: (§1) The following protocol was used to generate “apparent” IC50 (IC50 APP) values as depicted in Table 6, below. […] 5 μL of each enzyme were added to Corning (#3575) 384-well, black, microtiter plates (Corning, N.Y.) after spotting a 0.5 μL volume of 50% DMSO and serially diluted compounds prepared in 50% DMSO. Protease reactions were immediately started after enzyme addition with the addition of 45 μL of the FRET substrate and monitored for 60-90 minutes at λex485/λem520 in a Synergy^4 plate reader from BioTek (Winooski, Vt.). At the conclusion of each assay, progress curves from each well were examined for linear reaction kinetics and fit statistics (R^2, 95% confidence intervals, absolute sum of squares).
(§2) The compound numbers correspond to the compound numbers in Table 3. […] ;

[3] = target: T3, HCV NS3/4A 1b protease A156T (Hepatitis C virus genotype 1b, UniProt Q9WMX2, A1182T); test: HCV protease FRET assay (IC50_APP), Example 16; type: biochemical
T3 construct: 10× stocks of NS3/4A protease enzyme from Bioenza (Mountain View, Calif.); purchased Bioenza (Mountain View, Calif.)
Method: as §1, §2

[4] = target: T4, HCV NS3/4A 1b protease wild type (Hepatitis C virus genotype 1b, UniProt Q9WMX2); test: HCV protease FRET assay (IC50_APP), Example 16; type: biochemical
T4 construct: 10× stocks of NS3/4A protease enzyme from Bioenza (Mountain View, Calif.); purchased Bioenza (Mountain View, Calif.)
Method: as §1, §2

[5] = target: T5, HCV NS3/4A 1b protease R155K (Hepatitis C virus genotype 1b, UniProt Q9WMX2, R1181K); test: HCV protease FRET assay (IC50_APP), Example 16; type: biochemical; conditions: reaction started immediately after enzyme addition, read-out: Inhibition (apparent IC50, IC50_APP), HCV R155K
T5 construct: 10× stocks of NS3/4A protease enzyme from Bioenza (Mountain View, Calif.); purchased Bioenza (Mountain View, Calif.)
Method: as §1, §2

Row | Compound | IC50 [1] | IC90 [1] | Covalent modification of HCV NS3/4A wild type (HCV NS3/4A wild type) | IC50 [2] | IC50 [3] | IC50 [4] | IC50 [5] | Mass increase of new protein species vs protein with no compound (HCV NS3/4A wild type; 1 hr)
1 | C=CC(=O)N(C)C[C@H](NC(=O)OC1CCCC1)C(=O)N1C[C@H](OC(=O)N2Cc3cccc(F)c3C2)C[C@H]1C(=O)N[C@]1(C(=O)NS(=O)(=O)C2CC2)C[C@H]1C=C [Compound I-20, (3R,5S)-1-((S)-2-(cyclopentyloxycarbonylamino)-3-(N-methylacrylamido)propanoyl)-5-((1R,2S)-1-(cyclopropylsulfonylcarbamoyl)-2-vinylcyclopropylcarbamoyl)pyrrolidin-3-yl 4-fluoroisoindoline-2-carboxylate] | 10 to 100 nM | 100 to 1000 nM | measurable covalent modification | 10 to 100 nM | < 10 nM | < 10 nM |  | 
2 | C=CC(=O)NCC[C@H](NC(=O)OC(C)(C)C)C(=O)N1C[C@H](OC(=O)N2Cc3cccc(F)c3C2)C[C@H]1C(=O)N[C@]1(C(=O)NS(=O)(=O)C2CC2)C[C@H]1C=C [Compound I-5, (3R,5S)-1-((S)-4-acrylamido-2-(tert-butoxycarbonylamino)butanoyl)-5-((1R,2S)-1-(cyclopropylsulfonylcarbamoyl)-2-vinylcyclopropylcarbamoyl)pyrrolidin-3-yl 4-fluoroisoindoline-2-carboxylate] | 10 to 100 nM | 100 to 1000 nM | measurable covalent modification | 100 to 1000 nM | 10 to 100 nM | < 10 nM |  | 
3 | C=C[C@@H]1C[C@]1(NC(=O)[C@@H]1CC(OC(=O)N2Cc3cccc(F)c3C2)CN1C(=O)[C@H](CCC(=O)C(=C)C)NC(=O)OC(C)(C)C)C(=O)NS(=O)(=O)C1CC1 (stereo partly drawn) [Compound I-27] | 10 to 100 nM | 100 to 1000 nM | measurable covalent modification | < 10 nM | < 10 nM | < 10 nM |  | 
4 | C=CC(=O)N(C)CC[C@H](NC(=O)OC(C)(C)C)C(=O)N1C[C@H](OC(=O)N2Cc3cccc(F)c3C2)C[C@H]1C(=O)N[C@]1(C(=O)NS(=O)(=O)C2CC2)C[C@H]1C=C [Compound I-13, (3R,5S)-1-((S)-2-(tert-butoxycarbonylamino)-4-(N-methylacrylamido)butanoyl)-5-((1R,2S)-1-(cyclopropylsulfonylcarbamoyl)-2-vinylcyclopropylcarbamoyl)pyrrolidin-3-yl 4-fluoroisoindoline-2-carboxylate] | 10 to 100 nM | 100 to 1000 nM | measurable covalent modification | 100 to 1000 nM | < 10 nM | < 10 nM |  | 
5 | C=C[C@@H]1C[C@]1(NC(=O)[C@@H]1C[C@@H](OC(=O)N2Cc3cccc(F)c3C2)CN1C(=O)[C@@H](NC(=O)OC(C)(C)C)[C@@H](C)OC(=O)/C=C/C)C(=O)NS(=O)(=O)C1CC1 [Compound I-22, (3R,5S)-1-((2S,3R)-3-((E)-but-2-enoyloxy)-2-(tert-butoxycarbonylamino)butanoyl)-5-((1R,2S)-1-(cyclopropylsulfonylcarbamoyl)-2-vinylcyclopropylcarbamoyl)pyrrolidin-3-yl-4-fluoroisoindoline-2-carboxylate] | 10 to 100 nM | 10 to 100 nM | measurable covalent modification | 100 to 1000 nM | 10 to 100 nM | < 10 nM | 10 to 100 nM | 
6 | C=C[C@@H]1C[C@]1(NC(=O)[C@@H]1C[C@@H](OC(=O)N2Cc3cccc(F)c3C2)CN1C(=O)[C@H](CNS(=O)(=O)C=C)NC(=O)OC(C)(C)C)C(=O)NS(=O)(=O)C1CC1 [Compound I-2, (3R,5S)-1-((S)-2-(tert-butoxycarbonylamino)-3-(vinylsulfonamido)propanoyl)-5-((1R,2S)-1-(cyclopropylsulfonylcarbamoyl)-2-vinylcyclopropylcarbamoyl)pyrrolidin-3-yl 4-fluoroisoindoline-2-carboxylate] | 10 to 100 nM | 100 to 1000 nM | measurable covalent modification | < 10 nM | < 10 nM | < 10 nM |  | 
7 | C=C[C@@H]1C[C@]1(NC(=O)[C@@H]1C[C@@H](OC(=O)N2Cc3cccc(F)c3C2)CN1C(=O)[C@H](CCC(=O)C=C(C)C)NC(=O)OC(C)(C)C)C(=O)NS(=O)(=O)C1CC1 [Compound I-25, (3R,5S)-1-((S)-2-(tert-butoxycarbonylamino)-7-methyl-5-oxooct-6-enoyl)-5-((1R,2S)-4-(cyclopropylsulfonylcarbamoyl)-2-vinylcyclopropylcarbamoyl)pyrrolidin-3-yl 4-fluoroisoindoline-2-carboxylate] | < 10 nM | 10 to 100 nM | conversion to a new peak | 100 to 1000 nM | 10 to 100 nM | < 10 nM | 10 to 100 nM | 773 Da
8 | C=C[C@@H]1C[C@]1(NC(=O)[C@@H]1C[C@@H](OC(=O)N2Cc3cccc(F)c3C2)CN1C(=O)[C@H](COC(=O)C(=C)NC(=O)OC(C)(C)C)NC(=O)OC(C)(C)C)C(=O)NS(=O)(=O)C1CC1 [Compound I-23, (3R,5S)-1-((S)-2-(tert-butoxycarbonylamino)-3-(2-(tert-butoxycarbonylamino)acryloyloxy)propanoyl)-5-((1R,2S)-1-(cyclopropylsulfonylcarbamoyl)-2-vinylcyclopropylcarbamoyl)pyrrolidin-3-yl 4-fluoroisoindoline-2-carboxylate] | 10 to 100 nM | 100 to 1000 nM | measurable covalent modification | < 10 nM | < 10 nM | < 10 nM |  | 
